Assay results taken from patent US20250204515A1, “Heparanase Inhibition for Graft Protection” (University of Pittsburgh - Of the Commonwealth System of …, priority 2022, published 2025).
“Also recorded” adds a separate entry of the source.

Key:
Format in all cases: in vivo
[1] = system: rat lungs; test: Ex vivo lung perfusion (EVLP) of donor-pretreated rat lungs; details: donor pre-treatment; for pulmonary vascular resistance (PVR) during EVLP: 3 h normothermic EVLP; for syndecan-1 concentration in EVLP perfusate: during EVLP, vs increasing levels in control; for Evans blue dye (EBD) penetration into lung parenchyma: last 30 min of EVLP, vs control
Protocol: Ex vivo lung perfusion in rats. EVLP was performed using a commercially available rodent EVLP system (IPL-2 Isolated Perfused Rat or Guinea Pig Lung System; Harvard Apparatus, Holliston, MA). After procurement, the lungs were kept under cold ischemia for 1 h, then placed on the EVLP system, ventilated with air warmed to 37′, and perfused with 100 ml STEEN solution (XVIVO Perfusion AB) that was deoxygenated with 6% O2, 8% CO2 and balanced N2 and supplemented with 50 mg of methylprednisolone (Solu-Medrol; Pfizer, Inc.) and 50 mg of cephalosporin (Cefazolin; West-Ward Pharmaceuticals Corp., Eatontown, NJ). […] Pulmonary artery pressure, peak airway pressure, and airway flow were monitored continuously, and lung compliance and PVR were calculated every hour.
Assessment of endothelial barrier function. After 3 h of EVLP, 6 mg of Evans blue dye (EBD, Millipore Sigma) was administered into the perfusate to assess vascular endothelial permeability. After 30 min of perfusion, the lung vascular bed was rinsed with 20 ml of PBS and pieces of lungs were incubated overnight in formamide (Millipore Sigma) at 60° C. Absorbance of the extractant was measured at 620 nm to quantitate the amount of EBD that had permeabilized into the tissue and was normalized to dry-tissue weight.
Determination of glycocalyx components in rat lung grafts. For rat lung tissue, syndecan-1 released into the perfusate during EVLP was measured with a rat-specific ELISA (Immunotag Rat SDC1 (Syndecan-1) ELISA, G-Biosciences, St. Louis, MO). Glycocalyx glycosaminoglycans (GAGs) were quantitated using the 1,9-dimethylmethylene blue (DMMB, Millipore Sigma) method with modifications. A 1 L solution of DMMB (pH˜3.0) was prepared by dissolving 16 mg DMMB in distilled H2O containing 3.04 g/A glycine, 1.6 g/A NaCl and 95 ml 0.1 M acetic acid. Briefly, 1 ml DMMB solution was added to 20 μl lung tissue lysate then incubated at room temperature for 1 h on a tube rotator. The tubes were then centrifuged at 14,000 rpm for 15 min at 4° C. Supernatants were carefully decanted, 200 μL sodium lauryl sulfate buffer (2.08 mM) was added to each pellet, and the tubes were vortexed until GAG-DMMB pellets were no longer visible. GAG content in each sample was measured spectrophotometrically at 656 nm.

[2] = system: rat lung grafts; test: Rat orthotopic left lung transplantation of donor-pretreated lungs: graft function, edema, histology, cell infiltration; details: for T-cell (CD3+) infiltration / macrophage (CD68+) infiltration / polymorphonuclear neutrophil (PMN) infiltration: 2 h after reperfusion; for T-cell (CD3+) infiltration / macrophage (CD68+) infiltration / wet-to-dry (W/D) ratio / polymorphonuclear neutrophil (PMN) infiltration: vs control; for congestion, swollen alveolar walls, secretions in the airways (H&E) / wet-to-dry (W/D) ratio / PaO2/FiO2 (P/F) ratio: 2 h after transplantation, donor pre-treatment; for PaO2/FiO2 (P/F) ratio: vs control lung grafts; for polymorphonuclear neutrophil (PMN) infiltration: naphthol staining
Description: Study design. To investigate the stability of eGC in lung grafts and its potential influence on graft function and quality after reperfusion, we established rat models with damaged or preserved lung eGC and performed orthotopic, single, left-lung transplantation or EVLP using the lungs from these rats. Animals were randomly assigned 4 different groups; (1) native lungs (normal control), (2) Control: lungs with eGC damage, (3) Heparin: lungs with eGC preserved by heparin, and (4) NAH: lungs with eGC preserved by NAH. Shedding of the eGC was induced in vivo by donor systemic ischemia. After 1 h of ischemia in vivo, lungs were procured in a standardized fashion for lung transplantation then either directly transplanted or subjected to EVLP and assessed biologically. Native lungs were not subjected to any insult.
(§1) Models of lungs with damaged or preserved eGC and rat orthotopic left lung transplantation. Rats were sedated with 4% isoflurane via inhalation for tracheostomy and then placed on a ventilator. They received 5% isoflurane with 100% O2 via inhalation through the ventilator for 15 min to induce a deep state of anesthesia that causes arrest of spontaneous breathing. The rats were disconnected from the ventilator 5 min after intravenous administration of heparin (300 IU), a heparin derivative without anti-coagulant properties (300 μg; N-acetyl heparin (NAH) (Millipore Sigma, Burlington, MA)), or saline (300 μl, control) through the jugular vein. Cardiac activity and blood oxygen saturation were monitored after disconnection from ventilator until cardiac arrest. One hour after induction of ischemia, a median thoracotomy was performed, and blood was flushed from the lungs with cold, low potassium dextran solution (PERFADEX; XVIVO Perfusion AB) through the pulmonary artery. Then, the heart-lung bloc was isolated and stored in cold PERFADEX for 6 h before transplantation.
Orthotopic single-lung transplantation of the left lung was performed using the cuff method. Two hours after reperfusion, the naive lung was clamped, 100% 02 was administered for 5 min through a ventilator, and the recipient's blood was sampled from the graft pulmonary vein for blood gas analysis.
Wet-to-dry (W/D) weight ratio. The weight of the lung tissues was measured immediately after collection (wet weight). The lung tissue was then placed into a 60° C. oven to dry for 72 h. Tissues were weighed to deter-mine the dry weight, and the wet-to-dry ratio was calculated.
Tissue staining and histopathological analysis. Formalin-fixed, paraffin-embedded lung tissues collected 2 h after transplantation were sectioned to 4-μm thickness and stained with hematoxylin and eosin. The sections were also stained for immunofluorescent imaging using primary antibodies for CD3 (Invitrogen), CD68 (Invitrogen), or syndecan-1 (Santa Cruz), and Hoechst 33342 dye for nuclear staining. Primary antibody was detected by secondarily Cy5-conjugated goat anti-rabbit IgG (Invitrogen) and Cy3-conjugated goat anti-mouse IgG (Millipore Sigma).
Polymorphonuclear neutrophils (PMNs) were stained using a naphthol AS-D chloroacetate esterase staining kit (Millipore Sigma) and identified by nuclear morphology staining in bright red. Stained slides were scanned with a whole-slide image scanner (Axio Scan.Z1; Carl Zeiss) and analyzed with digital image processing software (ZEN lite blue edition; Carl Zeiss). Stained cells were counted by two investigators with the identity of the samples masked.

[3] = system: endothelial glycocalyx (eGC); test: Gross inspection and TEM glycocalyx imaging of rat lungs after 1 h warm ischemia; details: for gross visual appearance of excised lungs: heparin 300 IU or NAH 300 μg i.v. before 1 h ischemia; for eGC ultrastructure in lung vasculature (TEM): heparin 300 IU or NAH 300 μg i.v. before 1 h warm ischemia, vs control
Protocol: as §1
TEM for glycocalyx imaging. To prepare the tissue for transmission electron microscopy imaging, blood was flushed from rat lungs with PBS via the pulmonary artery after 1 h of warm ischemia, then the lungs were perfused with a solution containing 2% glutaraldehyde, 2% sucrose, 0.1 M sodium cacodylate buffer (pH 7.3, Sigma), and 2% lanthanum nitrate (Sigma). Excised lung tissues were incubated with the same solution for 2 h at 4° C. for fixation. The fixed tissues were immersed in a 2% sucrose, 0.1 M sodium cacodylate buffer (pH 7.3) solution with 2% lanthanum nitrate overnight at 4° C. to stain the glycocalyx, then washed twice with an alkaline solution (0.03 mol/l NaOH) containing 2% sucrose. Following fixation and glycocalyx staining with lanthanum nitrate, the specimens were rinsed in PBS, post-fixed in 1% osmium tetroxide (Electron Microscopy Sciences, Hatfield, PA), rinsed in PBS a second time, dehydrated through a graded series of ethanol and propylene oxide (Electron Microscopy Sciences), and embedded using a Poly/Bed 812 (Luft formulations) Embedding Kit (Polysciences, Warrington, PA). Sections were cut on a Leica-Reichart Ultracut ultra-microtome (Leica Microsystems, Buffalo Grove, IL). Semi-thin (300 nm) sections were stained with 0.5% toluidine blue in 1% sodium borate (toluidine blue O and sodium borate, Fisher Scientific, Pittsburgh, PA) and examined under the light microscope. Ultrathin sections (65 nm) were stained with uranyl acetate and Reynold's lead citrate and examined on a JEOL 1400 transmission electron microscope (JEOL Peabody, MA) with a side-mount AMT 2 k digital camera (Advanced Microscopy Techniques, Danvers, MA).

Substance	pulmonary vascular resistance (PVR) during EVLP [1]	syndecan-1 concentration in EVLP perfusate [1]	Evans blue dye (EBD) penetration into lung parenchyma [1]	T-cell (CD3+) infiltration [2]	macrophage (CD68+) infiltration [2]	congestion, swollen alveolar walls, secretions in the airways (H&E) [2]	wet-to-dry (W/D) ratio [2]	PaO2/FiO2 (P/F) ratio [2]	polymorphonuclear neutrophil (PMN) infiltration [2]	gross visual appearance of excised lungs [3]	eGC ultrastructure in lung vasculature (TEM) [3]
heparin	little to no increase	maintained at a constant level	significantly less EBD penetration	significantly reduced	significantly reduced	not observed	lower	significantly higher	significantly reduced	no significant changes in appearance	preserved; also recorded: intact and adherent to the cell surface
N-acetyl heparin [NAH]	little to no increase	maintained at a constant level	significantly less EBD penetration	significantly reduced	significantly reduced	not observed	lower	significantly higher	significantly reduced	no significant changes in appearance	intact and adherent to the cell surface
